Values quoted from earlier work in PMC8513935.

Assays:
[1] = derived by the authors as gas->solvent minus gas->water (a hypothetical dry solvent; the ESI), not a two-phase measurement
[2] = log P octanol/water from commercial databases, averaged (the ESI); settings: Octanol (wet), 25 C
[3] = experimental, compiled by the authors from the literature (the ESI cites the sources)

For `CN(C)C`, the log K of transfer, water to solvent ([1]; Acetone, 25 C) is listed as -0.47 log10 K, the log K of transfer, water to solvent ([1]; Benzene, 25 C) is listed as -0.3 log10 K and the log K of transfer, water to solvent ([1]; Butan-1-ol, 25 C) is listed as -0.22 log10 K. The log K of transfer, water to solvent ([1]; CCl4, 25 C) was -0.23 log10 K, the log K of transfer, water to solvent ([1]; Chlorobenzene, 25 C) was -0.3 log10 K and the log K of transfer, water to solvent ([1]; Chloroform, 25 C) was 0.51 log10 K. The log K of transfer, water to solvent ([1]; Cyclohexane, 25 C) was -0.42 log10 K, the log K of transfer, water to solvent ([1]; Diethyl Ether, 25 C) was -0.62 log10 K and the log K of transfer, water to solvent ([1]; Ethanol, 25 C) was 0.32 log10 K. The log K of transfer, water to solvent ([1]; Hexadecane, 25 C) was -0.73 log10 K, the log K of transfer, water to solvent ([1]; Hexane, 25 C) was -0.424 log10 K and the log K of transfer, water to solvent ([1]; Octan-1-ol(dry), 25 C) was -0.41 log10 K. The log K of transfer, water to solvent ([1]; Propan-1-ol, 25 C) was 0.21 log10 K, the log K of transfer, water to solvent ([1]; Toluene, 25 C) was -0.36 log10 K and the log K of transfer, water to solvent [2] was 0.19 log10 K. For the same compound, the log K of transfer, gas to solvent ([3]; Benzene, 25 C) was 2.05 log10 K, the log K of transfer, gas to solvent ([3]; Butan-1-ol, 25 C) was 2.13 log10 K and the log K of transfer, gas to solvent ([3]; CCl4, 25 C) was 2.12 log10 K. For the same compound, the log K of transfer, gas to solvent ([3]; Chlorobenzene, 25 C) was 2.05 log10 K, the log K of transfer, gas to solvent ([3]; Chloroform, 25 C) was 2.86 log10 K and the log K of transfer, gas to solvent ([3]; Cyclohexane, 25 C) was 1.93 log10 K. The log K of transfer, gas to solvent ([3]; Diethyl Ether, 25 C) was 1.73 log10 K, the log K of transfer, gas to solvent ([3]; Ethanol, 25 C) was 2.67 log10 K and the log K of transfer, gas to solvent ([3]; Hexadecane, 25 C) was 1.62 log10 K. For the same compound, the log K of transfer, gas to solvent ([3]; Hexane, 25 C) was 1.93 log10 K, the log K of transfer, gas to solvent ([3]; Octan-1-ol, 25 C) was 1.94 log10 K and the log K of transfer, gas to solvent ([3]; Propan-1-ol, 25 C) was 2.56 log10 K. The log K of transfer, gas to solvent ([3]; Propanone, 25 C) was 1.88 log10 K, the log K of transfer, gas to solvent ([3]; Toluene, 25 C) was 1.99 log10 K and the log K of transfer, gas to solvent ([3]; Water, 25 C) was 2.35 log10 K.
For `CCC(CC)(CC)CC`, the log K of transfer, water to solvent ([1]; Hexadecane, 25 C) is given as 5.64 log10 K, the log K of transfer, water to solvent ([1]; Hexane, 25 C) is given as 5.94 log10 K and the log K of transfer, water to solvent ([1]; Methanol, 25 C) is given as 4.78 log10 K. For the same compound, the log K of transfer, water to solvent [2] was 5.19 log10 K, the log K of transfer, gas to solvent ([3]; Hexadecane, 25 C) was 4.01 log10 K and the log K of transfer, gas to solvent ([3]; Hexane, 25 C) was 4.31 log10 K. The log K of transfer, gas to solvent ([3]; Methanol, 25 C) was 3.15 log10 K and the log K of transfer, gas to solvent ([3]; Water, 25 C) was -1.63 log10 K.
For `CCc1ccc(O)cc1`, the log K of transfer, water to solvent ([1]; 1,2-Dichloroethane, 25 C) is given as 1.67 log10 K, the log K of transfer, water to solvent ([1]; CCl4, 25 C) is given as 0.86 log10 K and the log K of transfer, water to solvent ([1]; Chlorobenzene, 25 C) is given as 1.3 log10 K. The log K of transfer, water to solvent ([1]; Chloroform, 25 C) was 1.47 log10 K, the log K of transfer, water to solvent ([1]; Dichloromethane, 25 C) was 1.66 log10 K and the log K of transfer, water to solvent ([1]; Hexadecane, 25 C) was 0.237 log10 K. The log K of transfer, water to solvent ([1]; Hexane, 25 C) was 0.29 log10 K, the log K of transfer, water to solvent ([1]; Perfluoroalkane, 25 C) was -1.33 log10 K and the log K of transfer, water to solvent [2] was 2.58 log10 K. For the same compound, the log K of transfer, gas to solvent ([3]; 1,2-Dichloroethane, 25 C) was 6.17 log10 K, the log K of transfer, gas to solvent ([3]; CCl4, 25 C) was 5.36 log10 K and the log K of transfer, gas to solvent ([3]; Chlorobenzene, 25 C) was 5.8 log10 K. For the same compound, the log K of transfer, gas to solvent ([3]; Chloroform, 25 C) was 5.97 log10 K, the log K of transfer, gas to solvent ([3]; Dichloromethane, 25 C) was 6.16 log10 K and the log K of transfer, gas to solvent ([3]; Hexadecane, 25 C) was 4.73 log10 K. The log K of transfer, gas to solvent ([3]; Hexane, 25 C) was 4.79 log10 K, the log K of transfer, gas to solvent ([3]; Perfluoroalkane, 25 C) was 3.17 log10 K and the log K of transfer, gas to solvent ([3]; Water, 25 C) was 4.5 log10 K.
For `CCCCC(C)=O`, the log K of transfer, water to solvent ([1]; Benzene, 25 C) is given as 1.81 log10 K, the log K of transfer, water to solvent ([1]; CCl4, 25 C) is given as 1.52 log10 K and the log K of transfer, water to solvent ([1]; Chlorobenzene, 25 C) is given as 1.87 log10 K. For the same compound, the log K of transfer, water to solvent ([1]; Cyclohexane, 25 C) was 1.02 log10 K, the log K of transfer, water to solvent ([1]; Hexadecane, 25 C) was 0.876 log10 K and the log K of transfer, water to solvent ([1]; Hexane, 25 C) was 1.02 log10 K. The log K of transfer, water to solvent ([1]; Methanol, 25 C) was 1.41 log10 K, the log K of transfer, water to solvent ([1]; Octan-1-ol(dry), 25 C) was 1.27 log10 K and the log K of transfer, water to solvent ([1]; Toluene, 25 C) was 1.7 log10 K. For the same compound, the log K of transfer, water to solvent [2] was 1.38 log10 K, the log K of transfer, gas to solvent ([3]; Benzene, 25 C) was 4.22 log10 K and the log K of transfer, gas to solvent ([3]; CCl4, 25 C) was 3.93 log10 K. The log K of transfer, gas to solvent ([3]; Chlorobenzene, 25 C) was 4.28 log10 K, the log K of transfer, gas to solvent ([3]; Cyclohexane, 25 C) was 3.42 log10 K and the log K of transfer, gas to solvent ([3]; Hexadecane, 25 C) was 3.28 log10 K. For the same compound, the log K of transfer, gas to solvent ([3]; Hexane, 25 C) was 3.43 log10 K, the log K of transfer, gas to solvent ([3]; Methanol, 25 C) was 3.82 log10 K and the log K of transfer, gas to solvent ([3]; Octan-1-ol, 25 C) was 3.68 log10 K. For the same compound, the log K of transfer, gas to solvent ([3]; Toluene, 25 C) was 4.11 log10 K and the log K of transfer, gas to solvent ([3]; Water, 25 C) was 2.41 log10 K.
For `CC(C)(C)Cl`, the log K of transfer, water to solvent ([1]; 1,2-Dichloroethane, 25 C) is listed as 3.42 log10 K, the log K of transfer, water to solvent ([1]; 2-Methylpropan-2-ol, 25 C) is listed as 2.96 log10 K and the log K of transfer, water to solvent ([1]; Butan-1-ol, 25 C) is listed as 2.97 log10 K. The log K of transfer, water to solvent ([1]; CCl4, 25 C) was 3.48 log10 K, the log K of transfer, water to solvent ([1]; Chlorobenzene, 25 C) was 3.41 log10 K and the log K of transfer, water to solvent ([1]; Cyclohexanone, 25 C) was 3.46 log10 K. For the same compound, the log K of transfer, water to solvent ([1]; Diethyl Ether, 25 C) was 3.28 log10 K, the log K of transfer, water to solvent ([1]; Hexadecane, 25 C) was 3.07 log10 K and the log K of transfer, water to solvent ([1]; Hexane, 25 C) was 3.31 log10 K. For the same compound, the log K of transfer, water to solvent ([1]; Propan-2-ol, 25 C) was 2.85 log10 K, the log K of transfer, water to solvent ([1]; Tetrahydrofuran, 25 C) was 3.3 log10 K and the log K of transfer, water to solvent [2] was 2.58 log10 K. The log K of transfer, gas to solvent ([3]; 1,2-Dichloroethane, 25 C) was 2.62 log10 K, the log K of transfer, gas to solvent ([3]; 2-Methylpropan-2-ol, 25 C) was 2.16 log10 K and the log K of transfer, gas to solvent ([3]; Butan-1-ol, 25 C) was 2.17 log10 K. For the same compound, the log K of transfer, gas to solvent ([3]; CCl4, 25 C) was 2.68 log10 K, the log K of transfer, gas to solvent ([3]; Chlorobenzene, 25 C) was 2.61 log10 K and the log K of transfer, gas to solvent ([3]; Cyclohexanone, 25 C) was 2.66 log10 K. For the same compound, the log K of transfer, gas to solvent ([3]; Diethyl Ether, 25 C) was 2.48 log10 K, the log K of transfer, gas to solvent ([3]; Hexadecane, 25 C) was 2.27 log10 K and the log K of transfer, gas to solvent ([3]; Hexane, 25 C) was 2.51 log10 K. For the same compound, the log K of transfer, gas to solvent ([3]; Propan-2-ol, 25 C) was 2.05 log10 K, the log K of transfer, gas to solvent ([3]; Tetrahydrofuran, 25 C) was 2.5 log10 K and the log K of transfer, gas to solvent ([3]; Water, 25 C) was -0.8 log10 K.
